For 14 compounds, TGI and GI50 results are on record in PubChem BioAssay (NCI).

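Step 1: Grow cells in 96-well plates. Step 2: Expose to compound for 48 hours at 5 concentrations. Step 3: Interpolate endpoints linearly; if unreached, use highest concentration. GI50: concentration for 50% inhibition of growth. The concentration for full growth arrest is given as TGI.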

Among the test systems are SK-MEL-2 melanoma; LOX IMVI melanoma; UACC-62 melanoma; HCT-15 colon; HCT-116 colon; SF-295 CNS; TK-10 renal; KM12 colon; NCI/ADR-RES ovarian; HS 578T breast.
Holding throughout (test): NCI anticancer screen, dose series, 48 h

Regarding `CCOP(=O)(OCC)/C(=C\N1C(=O)CC(=O)NC1=S)C(=O)OC`, the TGI in the assay with SK-MEL-2 melanoma, in the assay on LOX IMVI melanoma, with UACC-62 melanoma, in the assay on HCT-15 colon, with HCT-116 colon and in the assay with SF-295 CNS was more than 100 µM throughout. The TGI with TK-10 renal, in the assay with KM12 colon and in the assay on NCI/ADR-RES ovarian was more than 100 µM in each case.

With `Fc1ccc(C2CC(c3cccc(Nc4ccncc4)c3)=NN2c2cc(Cl)cc(Cl)c2)cc1` (stereo unspecified), the GI50 in the assay with LOX IMVI melanoma was 1.6 µM; in the assay with UACC-62 melanoma it was 1.74 µM; in the assay on HCT-15 colon, 1.77 µM; with HCT-116 colon, 1.66 µM; with SF-295 CNS, 1.77 µM; in the assay with TK-10 renal, 1.94 µM. The GI50 in the assay on KM12 colon was 1.76 µM; with NCI/ADR-RES ovarian it was 1.71 µM. Besides, the TGI is 2.94 µM in the assay on LOX IMVI melanoma; 3.27 µM with UACC-62 melanoma; 3.47 µM in the assay with HCT-15 colon; 3.15 µM in the assay with HCT-116 colon; 3.21 µM in the assay on SF-295 CNS; 3.84 µM with TK-10 renal. Moreover, the TGI in the assay on KM12 colon was 3.26 µM; with NCI/ADR-RES ovarian, 3.34 µM.

As to `O=C1c2ccccc2C(=O)c2c1ccc1c2N=C(c2ccc(F)cc2)CC(c2ccc(Cl)c(Cl)c2)N1` (stereo unspecified), the TGI with SK-MEL-2 melanoma stood at 29.3 µM; with LOX IMVI melanoma it was 18.3 µM; in the assay with UACC-62 melanoma, 25.7 µM; with HCT-15 colon, 19.8 µM; with HCT-116 colon, 23.7 µM; in the assay on SF-295 CNS, 28.6 µM. Also, the TGI amounted to 34 µM in the assay on TK-10 renal and 19.4 µM in the assay on KM12 colon.

For the compound `COc1ccc(Oc2nc3ccc(C(F)(F)F)cc3nc2-c2ccccc2)cc1`, the TGI in the assay on SK-MEL-2 melanoma, with LOX IMVI melanoma, with UACC-62 melanoma, with HCT-15 colon, in the assay on HS 578T breast and in the assay on HCT-116 colon was more than 100 µM throughout. Moreover, the TGI with SF-295 CNS, in the assay with TK-10 renal and with KM12 colon was more than 100 µM throughout.

Regarding `NC(c1ccccc1)(C(F)(F)F)P1(=O)OC(=O)c2ccccc2O1` (stereo unspecified), the TGI in the assay with SK-MEL-2 melanoma, in the assay on UACC-62 melanoma, with HCT-15 colon, in the assay on HCT-116 colon, in the assay with SF-295 CNS and with TK-10 renal was more than 100 µM in each case. Moreover, the TGI in the assay with KM12 colon and in the assay on NCI/ADR-RES ovarian was more than 100 µM each time.

As to `CSc1nc(NC2OCC(O)C(O)C2O)c(N)c(=O)n1C` (stereo unspecified), the TGI in the assay with SK-MEL-2 melanoma, in the assay with LOX IMVI melanoma, in the assay on UACC-62 melanoma, in the assay with HCT-15 colon, in the assay with HCT-116 colon and with SF-295 CNS was more than 100 µM each time. The TGI in the assay with KM12 colon and in the assay with NCI/ADR-RES ovarian was more than 100 µM each time.

With `O=C1CSC2=NCC3(NN12)c1ccccc1-c1ccccc13`, the TGI with LOX IMVI melanoma, in the assay with UACC-62 melanoma, in the assay with HCT-15 colon, in the assay on HS 578T breast, with HCT-116 colon and in the assay on SF-295 CNS was more than 10 µM each time. For the same compound, the TGI in the assay with TK-10 renal, with KM12 colon and in the assay on NCI/ADR-RES ovarian was more than 10 µM in each case.

As for `COc1ccc(C[C@H](N)C(=O)N2C[C@H](CO)C[C@H](n3ccc(=O)[nH]c3=O)C2)cc1`, the TGI in the assay with SK-MEL-2 melanoma, in the assay with LOX IMVI melanoma, in the assay on UACC-62 melanoma, in the assay on HCT-15 colon, in the assay with HCT-116 colon and in the assay on TK-10 renal was more than 100 µM throughout. In addition, the TGI with KM12 colon was more than 100 µM.

As for `[N-]=[N+]=NC1CC(n2cc(COCC(F)(F)F)c(=O)[nH]c2=O)OC1CO` (stereo unspecified), the TGI in the assay with SK-MEL-2 melanoma, with LOX IMVI melanoma, in the assay with UACC-62 melanoma, in the assay on SF-295 CNS, with TK-10 renal and with KM12 colon was more than 100 µM in each case.

As for `Oc1ccc2c(c1)CC[N+]1=C2CCC2CCCC21` (stereo unspecified), the TGI with SK-MEL-2 melanoma, in the assay with LOX IMVI melanoma, in the assay on UACC-62 melanoma, with HCT-15 colon, in the assay with HCT-116 colon and with SF-295 CNS was more than 100 µM each time. In the assay with TK-10 renal, the TGI is more than 100 µM.

In the case of `O=C(NNc1cn[nH]c(=O)c1Cl)/C(=C/c1ccc2c(c1)OCO2)NC(=O)c1ccccc1`, the TGI in the assay with SK-MEL-2 melanoma, in the assay on LOX IMVI melanoma, in the assay on UACC-62 melanoma, in the assay with HCT-15 colon, with HCT-116 colon and in the assay with SF-295 CNS was more than 100 µM in each case. In addition, the TGI in the assay with TK-10 renal, in the assay on KM12 colon and with NCI/ADR-RES ovarian was more than 100 µM in each case.

Turning to `CC(=O)OCc1cc(=O)n(C)c2c3c4c(cc12)c(C)cc(=O)n4CO3`, the TGI in the assay with SK-MEL-2 melanoma is 3.65 µM; in the assay on LOX IMVI melanoma, 8.6 µM; with UACC-62 melanoma it was 3.58 µM; with HCT-15 colon, 37.8 µM; in the assay on HCT-116 colon, 20 µM; in the assay with SF-295 CNS, 6.49 µM. In addition, the results for the TGI in the assay on KM12 colon and in the assay with NCI/ADR-RES ovarian were 41.7 µM and 10.9 µM, respectively.

`CCOC(=O)CCc1c(C(=O)OCC)[nH]c(/C=C2\NC(=O)C(C)=C2CC)c1C`: the TGI is 42.5 µM in the assay on SK-MEL-2 melanoma; more than 100 µM with LOX IMVI melanoma; 44.9 µM in the assay with UACC-62 melanoma; more than 100 µM with HCT-15 colon; more than 100 µM in the assay with HCT-116 colon; 41.3 µM in the assay with SF-295 CNS. Moreover, the TGI was more than 100 µM in the assay on KM12 colon and 32.4 µM in the assay on NCI/ADR-RES ovarian.

As for `O=c1[nH]c(=O)n(COCc2ccccc2)c2ccc([N+](=O)[O-])cc12`, the TGI with SK-MEL-2 melanoma, with LOX IMVI melanoma, in the assay with UACC-62 melanoma, with HCT-15 colon, in the assay on HCT-116 colon and in the assay on SF-295 CNS was more than 100 µM in each case. Also, the TGI with TK-10 renal, with KM12 colon and in the assay on NCI/ADR-RES ovarian was more than 100 µM each time.
